From patent publication US6262084A, “Compounds that inhibit the binding of integrins to their receptors” (Texas Biotechnology Corporation, priority 1999, dated 2001)

Molecular target: T1, α4β1 integrin (Homo sapiens, UniProt P05556+P13612)
T1 construct: Ramos cells fluorescently labeled with calcein; endogenous in cells; host or cells: Ramos cells
Assay: Inhibition of adhesion of calcein-labeled Ramos cells to CS1 (fibronectin) peptide-conjugated ovalbumin
Format: cell-based
Settings: for inhibition at 100 µM: Ramos, compound at a concentration of 100 μM, read-out: % A (percent inhibition of cell adhesion); for IC50: dose required to give 50% inhibition, Ramos cell adhesion to CS1-ovalbumin, 30 minutes at 37° C
Experimental: The ability of compounds of the present invention to inhibit binding is described in detail hereinafter in the Examples by a procedure in which a 26-amino acid peptide containing the CS1 sequence of fibroncctin with an N-terminal Cys was coupled to maleimide activated ovalbumin. Ovalbumin and CS1 conjugated ovalbumin were coated onto 96-well polystyrene plates at 5 μg/ml in TBS (50 mM Tris, pH 7.5; 150 mM NaCl) at 4° C. for 16 hours. The plates were washed three times with TBS and blocked with TBS containing 3% BSA at room temperature for 4 hours. Blocked plates were washed three times in binding buffer (TBS; 1 mM MgCl2; 1 mM CaCl2; 1 mM MnCl2) prior to assay. Ramos cells fluorescently labeled with calcein AMC-3099 were resuspended in binding buffer (10^7 cells/ml) and diluted 1:2 with same buffer with or without compound. The cells were added immediately to the wells (2.5×10^5 cells/well) and incubated for 30 minutes at 37° C. Following three washes with binding buffer, adherent cells were lysed and quantitated using a fluorometer.
IC50 is defined as the dose required to give 50% inhibition. The lower the IC50 value and the greater the percentage of inhibition, the more efficient the compound is at prevention of cell adhesion. A stands for inhibition in Table 1, and the percent inhibition indicates the inhibition of cell adhesion when compound is included in the assay at a concentration of 100 μM.

T1 sequence (P13612 34-1032): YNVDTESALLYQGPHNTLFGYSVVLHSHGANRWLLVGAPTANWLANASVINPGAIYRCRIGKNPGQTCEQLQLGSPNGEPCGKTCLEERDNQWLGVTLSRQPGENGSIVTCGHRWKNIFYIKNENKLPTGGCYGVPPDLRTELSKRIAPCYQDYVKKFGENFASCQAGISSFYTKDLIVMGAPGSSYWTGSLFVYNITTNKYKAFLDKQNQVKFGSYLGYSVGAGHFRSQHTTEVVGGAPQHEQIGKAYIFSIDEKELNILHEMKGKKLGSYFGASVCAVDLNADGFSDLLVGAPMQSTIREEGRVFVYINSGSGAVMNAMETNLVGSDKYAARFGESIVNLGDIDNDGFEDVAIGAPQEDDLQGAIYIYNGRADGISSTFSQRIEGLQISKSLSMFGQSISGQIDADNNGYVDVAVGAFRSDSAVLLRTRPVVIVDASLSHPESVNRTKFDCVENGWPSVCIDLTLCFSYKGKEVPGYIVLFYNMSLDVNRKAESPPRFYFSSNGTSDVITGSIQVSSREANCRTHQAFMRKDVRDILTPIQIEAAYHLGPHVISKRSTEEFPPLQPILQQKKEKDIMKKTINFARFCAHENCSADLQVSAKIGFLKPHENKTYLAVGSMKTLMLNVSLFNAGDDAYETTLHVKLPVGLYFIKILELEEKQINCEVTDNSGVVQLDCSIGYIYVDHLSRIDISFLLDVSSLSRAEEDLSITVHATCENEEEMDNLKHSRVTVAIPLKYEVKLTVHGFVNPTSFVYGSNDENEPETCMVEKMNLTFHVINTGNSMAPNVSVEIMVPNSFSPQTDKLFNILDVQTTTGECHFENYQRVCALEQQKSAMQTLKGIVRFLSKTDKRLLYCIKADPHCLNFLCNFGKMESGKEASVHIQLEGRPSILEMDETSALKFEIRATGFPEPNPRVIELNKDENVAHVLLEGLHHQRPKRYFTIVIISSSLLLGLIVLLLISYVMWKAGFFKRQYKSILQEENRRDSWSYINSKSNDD
T1 sequence (P05556 21-798): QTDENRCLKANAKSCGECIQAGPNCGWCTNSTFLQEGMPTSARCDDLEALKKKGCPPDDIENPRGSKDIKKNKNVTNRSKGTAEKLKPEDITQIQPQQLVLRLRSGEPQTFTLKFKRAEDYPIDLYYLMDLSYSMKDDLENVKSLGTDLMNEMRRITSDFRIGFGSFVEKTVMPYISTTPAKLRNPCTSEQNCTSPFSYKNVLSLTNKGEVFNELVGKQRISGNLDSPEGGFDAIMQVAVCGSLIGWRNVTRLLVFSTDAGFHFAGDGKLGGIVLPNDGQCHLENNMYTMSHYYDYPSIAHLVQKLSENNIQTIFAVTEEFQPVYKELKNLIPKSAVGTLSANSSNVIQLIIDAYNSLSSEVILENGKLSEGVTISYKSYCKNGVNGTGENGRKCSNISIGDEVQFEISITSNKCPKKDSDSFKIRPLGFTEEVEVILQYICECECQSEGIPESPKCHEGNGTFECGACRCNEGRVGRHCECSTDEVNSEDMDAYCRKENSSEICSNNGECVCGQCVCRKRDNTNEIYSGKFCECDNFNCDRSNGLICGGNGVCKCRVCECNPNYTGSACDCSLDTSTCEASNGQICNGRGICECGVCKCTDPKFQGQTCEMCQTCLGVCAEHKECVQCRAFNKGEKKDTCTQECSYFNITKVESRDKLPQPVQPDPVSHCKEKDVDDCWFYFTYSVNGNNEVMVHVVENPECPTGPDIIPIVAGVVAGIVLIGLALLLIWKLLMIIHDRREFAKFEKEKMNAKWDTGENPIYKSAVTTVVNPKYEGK

Structure (SMILES)	inhibition at 100 µM (Table 1) [%]	IC50 (Table 1) [µM]	IC50 (Table 2) [µM]
CSC[C@@H](CSc1ccccc1)NC(=O)N[C@@H](CC(=O)O)c1ccc2c(c1)OCO2 [(3S)-3-(1,3-benzodioxol-5-yl)-3-{[({(1S)-2-(methylsulfanyl)-1-[(phenylsulfanyl)methyl]ethyl}amino)carbonyl]amino}propanoic acid]	100	0.1	
O=C(O)C[C@H](NC(=O)NCCSc1ccccc1)c1ccc2c(c1)OCO2 [(3S)-3-(1,3-benzodioxol-5-yl)-3-[({[2-(phenylsulfanyl)ethyl]amino}carbonyl)amino]propanoic acid]	100	6	
Cc1ccccc1NC(=O)Nc1ccc(CNC(=O)[C@H](CCCCNC(=O)OCc2ccccc2)NC(=O)N[C@@H](CC(=O)O)c2ccc3c(c2)OCO3)cc1 [(9S,13S)-13-(1,3-benzodioxol-5-yl)-3,11-dioxo-1-phenyl-9-[({4-[(2-toluidinocarbonyl)amino]benzyl}amino)carbonyl]-2-oxa-4,10,12-triazapentadecan-15-oic acid]	100	0.0003	
COC(=O)NCCCC[C@H](NC(=O)N[C@@H](CC(=O)O)c1ccc2c(c1)OCO2)C(=O)NCc1ccc(OC)c(O)c1 [(9S,13S)-13-(1,3-benzodioxol-5-yl)-9-{[(3-hydroxy-4-methoxybenzyl)amino]carbonyl}-3,11-dioxo-2-oxa-4,10,12-triazapentadecan-15-oic acid]	100	0.2	
CCCC[C@@H](COCc1cccs1)NC(=O)N[C@@H](CC(=O)O)c1ccc2c(c1)OCO2 [Compound 22, (3S)-3-(1,3-benzodioxol-5-yl)-3-{[({(1S)-1-[(2-thienylmethoxy)methyl]pentyl}amino)carbonyl]amino}propanoic acid]	100	1.5	
CCCSC[C@H](NC(=O)N[C@@H](CC(=O)O)c1ccc2c(c1)OCO2)c1ccccc1 [(3S)-3-(1,3-benzodioxol-5-yl)-3-[({[(1R)-1-phenyl-2-(propylthio)ethyl]amino}carbonyl)amino]propanoic acid]	100	25	
O=C(O)C[C@H](NC(=O)N[C@H](COCc1ccccc1)CSCc1ccccc1)c1ccc2c(c1)OCO2 [(3S)-3-(1,3-benzodioxol-5-yl)-3-{[({(1R)-2-(benzyloxy)-1-[(benzylthio)methyl]ethyl}amino)carbonyl]amino}propanoic acid]	100	1	
CCCCCCCCSC[C@@H](CSc1ccccc1)NC(=O)N[C@@H](CC(=O)O)c1ccc2c(c1)OCO2 [(3S)-3-(1,3-benzodioxol-5-yl)-3-{[({(1S)-2-(octylsulfanyl)-1-[(phenylsulfanyl)methyl]ethyl}amino)carbonyl]amino}propanoic acid]	98	5	
CCCC[C@H](NC(=O)N[C@@H](CC(=O)O)c1ccc2c(c1)OCO2)C(=O)NCc1ccc(NCc2cccs2)cc1 [Compound 37, 3-(3S)-3-(1,3-benzodioxol-5-yl)-3-([((1S)-1-[(4-(2-thienylmethyl)aminobenzyl)amino]carbonylpentyl)amino]carbonylamino)propanoic acid]			0.03
CC(C)[C@@H](CSCCCc1ccccc1)NC(=O)N[C@@H](CC(=O)O)c1ccc2c(c1)OCO2 [(3S)-3-(1,3-benzodioxol-5-yl)-3-({[((1S)-2-methyl-1-{[(3-phenylpropyl)sulfanyl]methyl}propyl)amino]carbonyl}amino)propanoic acid]	99	20	
CC(C)[C@H](CSCc1ccccc1)NC(=O)NC(CC(=O)O)c1ccc2c(c1)OCO2 (stereo partly drawn) [3-(1,3-benzodioxol-5-yl)-3-{[({(1R)-1-[(benzylsulfanyl)methyl]-2-methylpropyl}amino)carbonyl]amino}propanoic acid]	83	40	
CSCC[C@@H](CSc1ccc(N)cc1)NC(=O)N[C@@H](CC(=O)O)c1ccc2c(c1)OCO2 [(3S)-3-[({[(1S)-1-{[(4-aminophenyl)sulfanyl]methyl}-3-(methylsulfanyl)propyl]amino}carbonyl)amino]-3-(1,3-benzodioxol-5-yl)propanoic acid]	100	3	
CCSC[C@@H](COCc1ccccc1)OC(=O)N[C@@H](CC(=O)O)c1ccc2c(c1)OCO2 [(3S)-3-(1,3-benzodioxol-5-yl)-3-{[({(1R)-2-(benzyloxy)-1-[(ethylthio)methyl]ethyl}oxy)carbonyl]amino}propanoic acid]	100	12	
CSCC[C@@H](CSc1cccc(NC(=O)Nc2ccccc2C)c1)NC(=O)N[C@@H](CC(=O)O)c1ccc2c(c1)OCO2 [(3S)-3-(1,3-benzodioxol-5-yl)-3-{[({(1S)-3-(methylsulfanyl)-1-[({3-[(2-toluidinocarbonyl)amino]phenyl}sulfanyl)methyl]propyl}amino)carbonyl]amino}propanoic acid]	100	0.002	
CSCC[C@@H](CSc1ccc(Cl)cc1)NC(=O)N[C@@H](CC(=O)O)c1ccc2c(c1)OCO2 [(3S)-3-(1,3-benzodioxol-5-yl)-3-[({[(1S)-1-{[(4-chlorophenyl)sulfanyl]methyl}-3-(methylsulfanyl)propyl]amino}carbonyl)amino]propanoic acid]	100	3	
CSCC[C@@H](CSc1ccccc1)NC(=S)N[C@@H](CC(=O)O)c1ccc2c(c1)OCO2 [(3S)-3-(1,3-benzodioxol-5-yl)-3-{[({(1S)-3-(methylsulfanyl)-1-[(phenylsulfanyl)methyl]propyl}amino)carbothioyl]amino}propanoic acid]	100	3	
O=C(O)C[C@H](NC(=O)N[C@H](CSc1ccccc1)CS(=O)(=O)Cc1ccccc1)c1ccc2c(c1)OCO2 [(3S)-3-(1,3-benzodioxol-5-yl)-3-(((((1R)-2-(benzylsulfonyl)-1-((phenylsulfanyl)methyl)ethyl)amino)carbonyl)amino)propanoic acid]	100	1	
O=C(O)C[C@H](NC(=O)N[C@@H](CCSc1ccccc1)CSc1ccccc1)c1ccc2c(c1)OCO2 [(3S)-3-(1,3-benzodioxol-5-yl)-3-{[({(1S)-3-(phenylthio)-1-[(phenylthio)methyl]propyl}amino)carbonyl]amino}propanoic acid]	100	0.3	
O=C(O)C[C@H](NC(=O)O[C@@H](COCCc1ccccc1)CSc1ccccc1)c1ccc2c(c1)OCO2 [(3S)-3-(1,3-benzodioxol-5-yl)-3-{[({(1S)-2-(phenethyloxy)-1-[(phenylthio)methyl]ethyl}oxy)carbonyl]amino}propanoic acid]	100	4	
CCCC[C@H](NC(=O)N[C@@H](CC(=O)O)c1ccc2c(c1)OCO2)C(=O)NCc1ccc(NCc2ccc(C)s2)cc1 [Compound 41, 3(3S)-3-(1,3-benzodioxol-5-yl)-3-([((1S)-1-[(4-(5-methyl-2-thienylmethyl)aminobenzyl)amino]carbonylpentyl)amino]carbonylamino)propanoic acid]			0.1
COC(=O)NCCC[C@@H](CSc1ccccc1)NC(=O)N[C@@H](CC(=O)O)c1ccc2c(c1)OCO2 [(8S,12S)-12-(1,3-benzodioxol-5-yl)-3,10-dioxo-8-((phenylsulfanyl)methyl)-2-oxa-4,9,11-triazatetradecan-14-oic acid]	100	2	
COC(=O)NCCCC[C@H](NC(=O)N[C@@H](CC(=O)O)c1ccc2c(c1)OCO2)C(=O)NCc1nc2ccccc2[nH]1 [(9S,13S)-9-{[(1H-benzimidazol-2-ylmethyl)amino]carbonyl}-13-(1,3-benzodioxol-5-yl)-3,11-dioxo-2-oxa-4,10,12-triazapentadecan-15-oic acid]	100	2	
COC(=O)NCCCC[C@@H](CS(=O)(=O)c1ccccc1)NC(=O)N[C@@H](CC(=O)O)c1ccc2c(c1)OCO2 [(9S,13S)-13-(1,3-benzodioxol-5-yl)-3,11-dioxo-9-[(phenylsulfonyl)methyl]-2-oxa-4,10,12-triazapentadecan-15-oic acid]	20	> 100	
COc1ccc(SC[C@H](CCSC)NC(=O)N[C@@H](CC(=O)O)c2ccc3c(c2)OCO3)cc1 [(3S)-3-(1,3-benzodioxol-5-yl)-3-[({[(1S)-1-{[(4-methoxyphenyl)sulfanyl]methyl}-3-(methylsulfanyl)propyl]amino}carbonyl)amino]propanoic acid]	100	7	
Cc1ccc(S(=O)(=O)NC[C@@H](CSc2ccccc2)NC(=O)N[C@@H](CC(=O)O)c2ccc3c(c2)OCO3)cc1 [(3S)-3-(1,3-benzodioxol-5-yl)-3-{[({(1S)-2-{[(4-methylphenyl)sulfonyl]amino}-1-[(phenylthio)methyl]ethyl}amino)carbonyl]amino}propanoic acid]	98	10	
